Results reported in article PMC10485003, “Antibiotic hyper-resistance in a class I aminoacyl-tRNA synthetase with altered active site signature motif” (Nature Communications, 2023).
“And” between values parts separate entries of the source, which are not always exact repeats. Equal values may be shown once.

Biological target: T1, mut-GVHH PmIleRS2 (Priestia megaterium, UniProt A0A0B6AVD3, G56H/H54G)
T1 sequence (A0A0B6AVD3 1-1032 H54G/G56H): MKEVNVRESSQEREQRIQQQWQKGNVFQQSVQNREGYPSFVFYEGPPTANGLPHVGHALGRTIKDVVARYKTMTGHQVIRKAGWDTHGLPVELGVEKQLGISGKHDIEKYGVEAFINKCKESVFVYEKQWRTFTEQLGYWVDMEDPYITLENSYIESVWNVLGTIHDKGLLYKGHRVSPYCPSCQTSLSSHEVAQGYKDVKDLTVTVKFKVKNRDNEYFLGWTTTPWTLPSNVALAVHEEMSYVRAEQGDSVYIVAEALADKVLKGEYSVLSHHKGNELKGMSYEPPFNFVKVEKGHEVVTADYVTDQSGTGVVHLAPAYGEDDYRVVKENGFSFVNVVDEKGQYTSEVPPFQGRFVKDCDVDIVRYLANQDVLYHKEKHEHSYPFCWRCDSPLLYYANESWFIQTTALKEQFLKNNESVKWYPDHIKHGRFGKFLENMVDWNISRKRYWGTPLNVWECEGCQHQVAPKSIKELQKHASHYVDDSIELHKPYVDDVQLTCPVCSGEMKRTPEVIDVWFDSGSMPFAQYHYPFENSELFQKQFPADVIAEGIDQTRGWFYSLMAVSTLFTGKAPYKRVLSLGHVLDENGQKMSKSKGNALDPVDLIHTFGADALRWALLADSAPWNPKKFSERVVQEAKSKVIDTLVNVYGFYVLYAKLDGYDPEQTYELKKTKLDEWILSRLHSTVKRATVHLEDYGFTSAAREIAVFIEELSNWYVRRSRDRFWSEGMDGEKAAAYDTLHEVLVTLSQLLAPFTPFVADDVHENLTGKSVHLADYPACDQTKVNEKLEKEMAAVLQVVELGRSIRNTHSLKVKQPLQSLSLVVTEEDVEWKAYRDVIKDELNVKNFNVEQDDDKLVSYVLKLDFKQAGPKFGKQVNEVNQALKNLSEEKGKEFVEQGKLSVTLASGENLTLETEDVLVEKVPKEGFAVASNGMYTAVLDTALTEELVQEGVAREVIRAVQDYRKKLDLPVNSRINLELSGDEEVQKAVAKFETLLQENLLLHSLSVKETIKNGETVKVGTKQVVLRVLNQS
Test: ATP-PPi exchange assay, mupirocin inhibition of amino acid activation
Type: biochemical, Priestia (Bacillus) megaterium
Experimental: L-Ile and ATP concentrations ranged from 1/10 KM to 10 KM values. When measuring the KI towards one of the substrates, the other was held in saturation (concentrations at least 10 KM). The aliquots of the reaction mixture (1–2.5 μl) were quenched in 2 volumes of 500 mM NaOAc pH = 4.5, 0.1% SDS, and formed ^32P-ATP was separated from the remaining ^32P-PPi by thin-layer chromatography on Polygram CEL 300 PEI UV254 TLC plates (Macherey-Nagel, cat: 801063) using 750 mM KH2PO4 pH=3.5, 4 M urea buffer. Visualization and quantification of the signals was performed using a Typhoon Phosphoimager 5 (General Electric) and accompanying ImageQuant™ TL software (SV: 10.2). The kinetic constants were determined using a global fit option of the competitive inhibition model of GraphPad Prism 6 software (SV: 6.01). All experiments were performed in triplicates. The kcat was determined by dividing the maximal velocity, VM, with the used enzyme concentration. […]
variable substrate (ATP or Ile) was varied in the range of 0.1 KM to 10 KM. The other substrate (Ile or ATP) was kept in excess at 5 to 10 KM. Data were globally fitted to the competitive inhibition model using GraphPad prism 6.01 for Windows software. The values represent the average value ± SD of three independent experiments. Source data are provided as a Source Data file.

## C/C(=C\C(=O)OCCCCCCCCC(=O)O)C[C@@H]1OC[C@H](C[C@@H]2O[C@H]2[C@@H](C)[C@H](C)O)[C@@H](O)[C@H]1O [mupirocin]
KI (MUP)ATP, amino acid activation assay, ATP as variable substrate, average ± SD of three independent experiments
  Ki: 480 ± 10 µM
KI (MUP)Ile, amino acid activation step, ATP/PPi exchange assay, Ile varied, ATP saturating, average ± SD of three independent experiments
  Ki: 460 ± 10 µM
KI, single replicates, mupirocin inhibition towards Ile, GraphPad Prism output, Repl1-Repl3
  Ki: 470 µM and 480 µM and 420 µM
C (mupirocin) = 0.5 mM, c (Ile) 100.0 μM, Replica 1
  vo: 0.01849 mM/min
C (mupirocin) = 0.5 mM, c (Ile) 100.0 μM, Replica 2
  vo: 0.01948 mM/min
C (mupirocin) = 0.5 mM, c (Ile) 250.0 μM, Replica 1
  vo: 0.03623 mM/min
C (mupirocin) = 0.5 mM, c (Ile) 250.0 μM, Replica 2
  vo: 0.03682 mM/min
C (mupirocin) = 0.5 mM, c (Ile) 250.0 μM, Replica 3
  vo: 0.03653 mM/min
C (mupirocin) = 0.5 mM, c (Ile) 500.0 μM, Replica 1
  vo: 0.05582 mM/min
C (mupirocin) = 0.5 mM, c (Ile) 500.0 μM, Replica 2
  vo: 0.05871 mM/min
C (mupirocin) = 0.5 mM, c (Ile) 500.0 μM, Replica 3
  vo: 0.05786 mM/min
C (mupirocin) = 0.5 mM, c (Ile) 1000.0 μM, Replica 1
  vo: 0.07169 mM/min
C (mupirocin) = 0.5 mM, c (Ile) 1000.0 μM, Replica 2
  vo: 0.07587 mM/min
C (mupirocin) = 0.5 mM, c (Ile) 1000.0 μM, Replica 3
  vo: 0.07605 mM/min
C (mupirocin) = 0.5 mM, c (Ile) 1500.0 μM, Replica 1
  vo: 0.08634 mM/min
C (mupirocin) = 0.5 mM, c (Ile) 1500.0 μM, Replica 2
  vo: 0.08442 mM/min
C (mupirocin) = 0.5 mM, c (Ile) 1500.0 μM, Replica 3
  vo: 0.08419 mM/min
C (mupirocin) = 1.0 mM, c (Ile) 100.0 μM, Replica 1
  vo: 0.01236 mM/min
C (mupirocin) = 1.0 mM, c (Ile) 100.0 μM, Replica 2
  vo: 0.01246 mM/min
C (mupirocin) = 1.0 mM, c (Ile) 100.0 μM, Replica 3
  vo: 0.01228 mM/min
C (mupirocin) = 1.0 mM, c (Ile) 250.0 μM, Replica 1
  vo: 0.0294 mM/min
C (mupirocin) = 1.0 mM, c (Ile) 250.0 μM, Replica 2
  vo: 0.02992 mM/min
C (mupirocin) = 1.0 mM, c (Ile) 250.0 μM, Replica 3
  vo: 0.02794 mM/min
C (mupirocin) = 1.0 mM, c (Ile) 500.0 μM, Replica 1
  vo: 0.04465 mM/min
C (mupirocin) = 1.0 mM, c (Ile) 500.0 μM, Replica 2
  vo: 0.04713 mM/min
C (mupirocin) = 1.0 mM, c (Ile) 500.0 μM, Replica 3
  vo: 0.04492 mM/min
C (mupirocin) = 1.0 mM, c (Ile) 1000.0 μM, Replica 1
  vo: 0.06444 mM/min
C (mupirocin) = 1.0 mM, c (Ile) 1000.0 μM, Replica 2
  vo: 0.06152 mM/min
C (mupirocin) = 1.0 mM, c (Ile) 1000.0 μM, Replica 3
  vo: 0.06395 mM/min
C (mupirocin) = 1.0 mM, c (Ile) 1500.0 μM, Replica 1
  vo: 0.07511 mM/min
C (mupirocin) = 1.0 mM, c (Ile) 1500.0 μM, Replica 2
  vo: 0.07278 mM/min
C (mupirocin) = 1.0 mM, c (Ile) 1500.0 μM, Replica 3
  vo: 0.07621 mM/min
C (mupirocin) = 2.5 mM, c (Ile) 100.0 μM, Replica 1
  vo: 0.00609 mM/min
C (mupirocin) = 2.5 mM, c (Ile) 100.0 μM, Replica 2
  vo: 0.00589 mM/min
C (mupirocin) = 2.5 mM, c (Ile) 100.0 μM, Replica 3
  vo: 0.00628 mM/min
C (mupirocin) = 2.5 mM, c (Ile) 250.0 μM, Replica 1
  vo: 0.01433 mM/min
C (mupirocin) = 2.5 mM, c (Ile) 250.0 μM, Replica 2
  vo: 0.01642 mM/min
C (mupirocin) = 2.5 mM, c (Ile) 250.0 μM, Replica 3
  vo: 0.01353 mM/min
C (mupirocin) = 2.5 mM, c (Ile) 500.0 μM, Replica 1
  vo: 0.02701 mM/min
C (mupirocin) = 2.5 mM, c (Ile) 500.0 μM, Replica 2
  vo: 0.02762 mM/min
C (mupirocin) = 2.5 mM, c (Ile) 500.0 μM, Replica 3
  vo: 0.02637 mM/min
C (mupirocin) = 2.5 mM, c (Ile) 1000.0 μM, Replica 1
  vo: 0.042 mM/min
C (mupirocin) = 2.5 mM, c (Ile) 1000.0 μM, Replica 2
  vo: 0.04503 mM/min
C (mupirocin) = 2.5 mM, c (Ile) 1000.0 μM, Replica 3
  vo: 0.03982 mM/min
C (mupirocin) = 2.5 mM, c (Ile) 1500.0 μM, Replica 1
  vo: 0.05219 mM/min
C (mupirocin) = 2.5 mM, c (Ile) 1500.0 μM, Replica 2
  vo: 0.055 mM/min
C (mupirocin) = 2.5 mM, c (Ile) 1500.0 μM, Replica 3
  vo: 0.05194 mM/min
C (mupirocin) = 5.0 mM, c (Ile) 100.0 μM, Replica 1
  vo: 0.00403 mM/min
C (mupirocin) = 5.0 mM, c (Ile) 100.0 μM, Replica 2
  vo: 0.00438 mM/min
C (mupirocin) = 5.0 mM, c (Ile) 100.0 μM, Replica 3
  vo: 0.00348 mM/min
C (mupirocin) = 5.0 mM, c (Ile) 250.0 μM, Replica 1
  vo: 0.0082 mM/min
C (mupirocin) = 5.0 mM, c (Ile) 250.0 μM, Replica 2
  vo: 0.00786 mM/min
